Assay results: patent publication US7125911B2, “Autonomic nerve regulating agent” (Kao Corporation, priority 2000, dated 2006)

How the values were obtained:
[1] = system: women in their twenties suffering from poor sleep; assay: Sleep monitoring with cedrol vaporized in the room from bedtime until waking (Example 3); assay type: in vivo, human; conditions: significance 5%
Description: The subjects were ten women in their twenties suffering from poor sleep. ECG (chest V5 lead), brain waves (C3, O1 in the international 10–20 method), respiration (impedance method: abdomen and chest), superficial electromyogram (bipolar lead of left and right mentalis muscles), and ocular movement (bipolar lead without horizontally linking left and right eye-sockets) were monitored from the time the subjects went to bed until they woke in a 40 m^2 room. The cedrol was administered by placing Petri dishes filled with cedrol on 95° C. hot plates so that approximately 100 mg was vaporized per hour (about 1 ppb/hr), from the time subjects went to bed until they woke. Measurements were taken for 7 days. No administration took place on the first two days, in order to allow subjects to become acclimated to the measuring instruments and environment (control). On the third day, administration was managed without anything placed on the hot plates (placebo). After 3 days, cedrol was administered on the 7th day.
The subjects were interviewed about their condition on waking using a questionnaire based on POMS (profile of mood states) to assess mood. The changes in the parameters measured during the administration of cedrol and placebo treatment were compared.
Awakening and sleep stages were determined in accordance with international standards for determining sleep stages (Sleep Brain Wave Atlas, pp. 3–9, Ishiyaku Shuppan KK, published September, 1971, the relevant portions thereof which describe sleep analysis and standards are incorporated herein by reference). Frequency analysis of R—R interval fluctuations and statistical analysis of the measurement results were done in the same manner as in Example 1.

[2] = system: insomniac women in their fifties; assay: Sleep in a room with furnishings and bedding coated with cedrol, actigram assessment (Example 7); assay type: in vivo, human; conditions: furnishings and bedding coated with cedrol 1.5 μg/cm^2, 15th to 21st days, vs control week; p<0.01
Description: The subjects were twenty insomniac women in their fifties, while sleep was assessed from 3 hours before bed until wakening for 4 weeks in a room (sleeping room) at a temperature of 23° C. and a humidity of 50%. The first week served as a control. For the last 3 weeks, the test was conducted by replacing the curtains, wall paper, flooring, pillows, sheets, and bedding with those which had been coated with cedral (1.5 μg/cm^2).
The subjects ware actigrams for 4 continuous weeks on the opposite of their leading arm to allow assessment of the sleeping efficiency and intermittent awakening. Analyzed data for the cedrol coatings were from the 15th to 21st days following application.
Statistical analysis of the measurement results was the same as in Example 5.

[3] = Vapor pressure of purified cedrol by static method and gas flow method; assay type: physicochemical; conditions: ambient temperature (unheated)
Description: The vapor pressure of purified cedrol (molecular weight 222 g·mol^−1) used in the following examples was determined by a static method and a gas flow method (temperature: 22, 50, and 75° C. for solids; 100 and 125° C. for liquids).
In the static method, samples were taken from hermetically sealed containers, a constant temperature was established, and the equilibrium vapor pressure at that temperature was directly measured using a pressure gauge (OECD Test Guidelines 104: Static Measurement of Vapor Pressure).
In the gas flow method, carrier gas (nitrogen gas) was allowed to flow so as to come into contact with a solid or liquid sample at a certain temperature to saturate the sample vapor, and the vapor density (vaporization quantity/volume) was measured so as to determine the vapor pressure hypothetically in accordance with ideal gas principles. The vapor density herein referred to is calculated from the sample vaporization rate (rate of loss) determined using an electrical balance, and the carrier gas flow rate determined using a flow rate gauge. However, since the sample vapor saturation is usually incomplete, the vapor density level is dependent on flow rate, so the vapor density was measured at varying flow rates for extrapolation to a zero flow rate to determine the saturated vapor density. […]

[4] = system: insomniac women in their twenties (parasympathetic predominance to excess); assay: Inhalation of cedrol for 30 seconds with ECG, blood pressure and respiration monitoring (Example 2); assay type: in vivo, human; conditions: after vs before inhalation, insomniac subjects
Source text: The subjects were ten insomniac women in their twenties (under considerable pressure to get to sleep, with parasympathetic predominance to excess), who were asked to inhale, for 30 seconds, cedrol dissolved in dipropylene glycol (10 wt % concentration), while ECG at rest (chest V5 lead), blood pressure (tonometry), and respiration (pulmonary volume instantaneously measured by respiratory rate sensor), and skin blood flow of forehead (measured by laser Doppler methods) were monitored. The changes in parameters before and after measurement were compared. Frequency analysis of R—R interval fluctuations and statistical analysis of the measurement results were done in the same manner as in Example 1.

[5] = system: women in their twenties complaining of fatigue (sympathetic overactivity); assay: Inhalation of cedrol for 30 seconds with ECG, blood pressure and respiration monitoring (Example 1); assay type: in vivo, human; conditions: after vs before inhalation, 10 wt % in dipropylene glycol, significance 5%
Description: The subjects were ten women in their twenties complaining of fatigue (sympathetic overactivity), who were asked to inhale, for 30 seconds, cedrol dissolved in dipropylene glycol (10 wt % concentration), while ECG at rest (chest V5 lead), blood pressure (tonometry), and respiration (pulmonary volume instantaneously measured by respiratory rate sensor) were monitored. The changes in parameters before and after measurement were compared. Frequency analysis of R—R interval fluctuations was performed for low frequency components integrating amplitudes 0.02 to 0.12 Hz (sum of low frequency: Lsum) and high frequency components integrating amplitudes 0.12 to 2.00 Hz (sum of high frequency: Hsum) using the rapid Fourier transform. As used here, the Hsum is an indicator of parasympathetic nervous activity, and the Lsum/Hsum is an indicator of sympathetic nervous activity.
The measurement results were statistically analyzed by Welch's t-test or Student's t-test based on the F test.

[6] = 7th day (cedrol) vs before administration and 3rd day (placebo treatment)
[7] = cedrol approximately 100 mg vaporized per hour vs placebo treatment
[8] = within physiologically normal range, significance 5%

## C[C@@H]1CC[C@H]2C(C)(C)[C@H]3C[C@@]12CC[C@@]3(C)O [cedrol]
[1]; [6]
  POMS fatigue: meaningful (5%) improvement
  POMS tension: meaningful (5%) improvement
[1]; cedrol approximately 100 mg vaporized per hour (about 1 ppb/hr) vs placebo treatment
  Hsum during non-REM sleep: meaningfully increased
[1]; [7]
  cumulative incidence of stages 3 and 4 of sleep: meaningfully greater
  respiratory rate (RR) during non-REM sleep: meaningfully lower
[2]
  intermittent awakening: meaningfully fewer
  sleeping efficiency: meaningfully better
[3]
  vapor pressure (vaporizability): can be vaporized at ambient temperature
[4]
  ECG R-R interval: no meaningful change
  Hsum: tended to be lower
  Lsum/Hsum: tended to be higher
  respiratory rate (RR): no meaningful difference
[4]; [8]
  diastolic blood pressure (DBP): meaningfully higher
  systolic blood pressure (SBP): meaningfully higher
[5]
  ECG R-R interval: meaningfully longer
  Hsum (parasympathetic nervous activity indicator): meaningfully greater
  Lsum/Hsum (sympathetic nervous activity indicator): meaningfully lower
  diastolic blood pressure (DBP): meaningfully lower
  respiratory rate (RR): meaningfully lower
  systolic blood pressure (SBP): meaningfully lower
